{"source": "patent US4599203A", "about": "“Multisulfonated naphthalene ureas useful as complement inhibitors” (American Cyanamid Company, priority 1984, dated 1986)", "key": {"activated human C1": {"target": "activated human C1 (Homo sapiens, UniProt P09871)", "experiment": "Test Code 026 (C1 inhibitor): protection of fluid phase human C2 from activated human C1 in the presence of C4", "type": "biochemical", "conditions": "serial twofold dilution assay; higher well number indicates higher activity"}, "complement": {"tested_on": "complement", "experiment": "Guinea Pig Intraperitoneal Test (GPIP): serum complement activity after i.p. dosing", "type": "in vivo", "conditions": "200 mg/kg i.p.; for In vivo Activity Guinea Pigs Intraperitoneal % Lowering, 30 minutes: blood 30 minutes after injection; for In vivo Activity Guinea Pigs Intraperitoneal % Lowering, 60 minutes: blood 60 minutes after injection; for In vivo Activity Guinea Pigs Intraperitoneal % Lowering, 120 minutes: blood 120 minutes after injection", "procedure": "(§1) An active inhibitor protects C2 from C1 and C4; (ii) Test Code 036 (C-Shunt inhibitor)--In this test human erythrocytes rendered fragile are lysed in autologous serum via the shunt pathway activated by cobra venom factor in the presence of appropriate dilutions of the test compound. Inhibition of the shunt pathway results in failure of lysis; (iii) Cap 50 Test--Here, appropriate amounts of the test compound are added to a pool of guinea pig serum in vitro, after which the complement level is determined in undiluted serum by the serum capillary tube assay of U.S. Pat. No. 3,876,376. The concentration of compound inhibiting 50% is reported; and (iv) Guinea Pig Intraperitoneal Test (GPIP)--Guinea pigs weighing about 300 g are dosed intraperitoneally (i.p.) with 200 mg/kg of the test compound dissolved in saline and adjusted to pH 7-8. Approximately 0.4 ml blood samples, taken by orbital sinus puncture 30 minutes and one hour after injections, are collected directly into centrifuge tubes; 5 ml blood samples, taken by decapitation 2 hours after inJection, are collected directly into diSPo® beakers. The samples were allowed to clot, centrifuged, and the resultant sera were assayed for complement activity using the capillary complement assay. Percent inhibition is calculated by comparison with simultaneous controls. The results of the GPIP appear in Table I together with results of Test Code 026, 036 and Cap 50."}, "shunt pathway": {"tested_on": "shunt pathway", "experiment": "Test Code 036 (C-Shunt inhibitor): lysis of fragile human erythrocytes in autologous serum via shunt pathway activated by cobra venom factor", "type": "cell-based", "conditions": "serial twofold dilution assay; higher well number indicates higher activity", "procedure": "as §1, with “The results of the GPIP appear in Table I together with results of Test Code 026, 036 and Cap 50.” left out"}, "complement system": {"tested_on": "complement system", "conditions": "literature report; cited from earlier work"}, "[1]": {"tested_on": "hereditary angioneurotic edema", "conditions": "literature report; cited from earlier work"}}, "note": "Structures can show the parent of a compound that is named as a salt."}
{"compound": "O=C(Nc1cc2c(O)cc(S(=O)(=O)[O-])cc2cc1S(=O)(=O)[O-])Nc1cc2c(O)cc(S(=O)(=O)[O-])cc2cc1S(=O)(=O)[O-].[Na+].[Na+].[Na+].[Na+]", "note": "[3,3'-Ureylenebis(5-hydroxy-2,7-naphthalenedisulfonic acid), tetrasodium salt]", "values": [{"measurement": "In vitro Activity C1 026 Wells", "setting": "activated human C1", "value": "+4 Wells"}, {"measurement": "In vivo Activity Guinea Pigs Intraperitoneal % Lowering, 30 minutes", "setting": "complement", "value": 4, "unit": "%"}, {"measurement": "In vivo Activity Guinea Pigs Intraperitoneal % Lowering, 60 minutes", "setting": "complement", "value": 1, "unit": "%"}, {"measurement": "In vivo Activity Guinea Pigs Intraperitoneal % Lowering, 120 minutes", "setting": "complement", "value": 28, "unit": "%"}]}
{"compound": "O=C(Nc1cc(S(=O)(=O)[O-])c2cc([N+](=O)[O-])cc(S(=O)(=O)[O-])c2c1)Nc1cc(S(=O)(=O)[O-])c2cc([N+](=O)[O-])cc(S(=O)(=O)[O-])c2c1.[Na+].[Na+].[Na+].[Na+]", "note": "[3,3'-Ureylenebis(7-nitro-1,5-naphthalenedisulfonic acid), tetrasodium salt]", "values": [{"measurement": "In vitro Activity C1 026 Wells", "setting": "activated human C1", "value": "+3 Wells"}]}
{"compound": "O=C(Nc1cc2ccc(S(=O)(=O)[O-])cc2cc1S(=O)(=O)[O-])Nc1cc2ccc(S(=O)(=O)[O-])cc2cc1S(=O)(=O)[O-].[Na+].[Na+].[Na+].[Na+]", "note": "[3,3'-Ureylenedi-2,7-naphthalenedisulfonic acid, tetrasodium salt]", "values": [{"measurement": "In vitro Activity C1 026 Wells", "setting": "activated human C1", "value": "+3 Wells"}]}
{"compound": "O=C(Nc1cc(S(=O)(=O)O)cc2cc(S(=O)(=O)O)cc(OS(=O)(=O)c3ccccc3)c12)Nc1cc(S(=O)(=O)O)cc2cc(S(=O)(=O)O)cc(OS(=O)(=O)c3ccccc3)c12", "note": "[4,4'-Ureylenebis(5-hydroxy-2,7-naphthalenedisulfonic acid), tetrasodium salt dibenzenesulfonate]", "values": [{"measurement": "In vitro Activity C1 026 Wells", "setting": "activated human C1", "value": "+3 Wells"}]}
{"compound": "O=C(Nc1ccc(S(=O)(=O)[O-])c2ccc(S(=O)(=O)[O-])cc12)Nc1ccc(S(=O)(=O)[O-])c2ccc(S(=O)(=O)[O-])cc12.[Na+].[Na+].[Na+].[Na+]", "note": "[4,4'-Ureylenedi-1,6-naphthalenedisulfonic acid, tetrasodium salt]", "values": [{"measurement": "In vitro Activity C1 026 Wells", "setting": "activated human C1", "value": "+3 Wells"}]}
{"compound": "O=C(Nc1ccc(S(=O)(=O)[O-])c2ccccc12)Nc1ccc(S(=O)(=O)[O-])c2ccccc12.[Na+].[Na+]", "note": "[4,4'-Ureylenedi-1-naphthalenesulfonic acid, disodium salt]", "values": [{"measurement": "In vitro Activity C1 026 Wells", "setting": "activated human C1", "value": "+2 Wells"}]}
{"compound": "O=C(Nc1cc(S(=O)(=O)[O-])cc2ccc(S(=O)(=O)[O-])cc12)Nc1cc(S(=O)(=O)[O-])cc2ccc(S(=O)(=O)[O-])cc12.[Na+].[Na+].[Na+].[Na+]", "note": "[4,4'-Ureylenedi-2,6-naphthalenedisulfonic acid, tetrasodium salt]", "values": [{"measurement": "In vitro Activity C1 026 Wells", "setting": "activated human C1", "value": "+2 Wells"}]}
{"compound": "O=C(Nc1cc(S(=O)(=O)[O-])cc2cc(S(=O)(=O)[O-])ccc12)Nc1cc(S(=O)(=O)[O-])cc2cc(S(=O)(=O)[O-])ccc12.[Na+].[Na+].[Na+].[Na+]", "note": "[4,4'-Ureylenedi-2,7-naphthalenedisulfonic acid, tetrasodium salt]", "values": [{"measurement": "In vitro Activity C1 026 Wells", "setting": "activated human C1", "value": "+3 Wells"}]}
{"compound": "O=C(Nc1ccc2c(S(=O)(=O)[O-])cc(S(=O)(=O)[O-])cc2c1)Nc1ccc2c(S(=O)(=O)[O-])cc(S(=O)(=O)[O-])cc2c1.[Na+].[Na+].[Na+].[Na+]", "note": "[6,6'-Ureylenedi-1,3-naphthalenedisulfonic acid, tetrasodium salt]", "values": [{"measurement": "In vitro Activity C1 026 Wells", "setting": "activated human C1", "value": "+3 Wells"}]}
{"compound": "O=C(Nc1ccc2c(O)cc(S(=O)(=O)O)cc2c1)Nc1ccc2c(O)cc(S(=O)(=O)O)cc2c1", "note": "[6,6'-ureylenebis(1-hydroxy-3-naphthalenesulfonic acid)]", "values": [{"measurement": "In vitro Activity C1 026 Wells", "setting": "activated human C1", "value": "+1 Wells"}]}
{"compound": "O=C(Nc1cc(S(=O)(=O)[O-])c2cc(S(=O)(=O)[O-])cc(S(=O)(=O)[O-])c2c1)Nc1cc(S(=O)(=O)[O-])c2cc(S(=O)(=O)[O-])cc(S(=O)(=O)[O-])c2c1.[Na+].[Na+].[Na+].[Na+].[Na+].[Na+]", "note": "[7,7'-Ureylenedi-1,3,5-naphthalenetrisulfonic acid, hexasodium salt]", "values": [{"measurement": "In vitro Activity C-Shunt Inhibition 036 Wells", "setting": "shunt pathway", "value": "+1 Wells"}, {"measurement": "In vitro Activity C1 026 Wells", "setting": "activated human C1", "value": "+6 Wells"}]}
{"compound": "O=C(Nc1ccc2cc(S(=O)(=O)O)cc(O)c2c1)Nc1ccc2cc(S(=O)(=O)O)cc(O)c2c1", "note": "[7,7'-ureylenebis(1-hydroxy-3-naphthalenesulfonic acid)]", "values": [{"measurement": "In vitro Activity C1 026 Wells", "setting": "activated human C1", "value": "+2 Wells"}]}
{"compound": "O=S(=O)([O-])c1cc(NC(=S)Nc2cc(S(=O)(=O)[O-])cc3cc(S(=O)(=O)[O-])cc(S(=O)(=O)[O-])c23)c2c(S(=O)(=O)[O-])cc(S(=O)(=O)[O-])cc2c1.[Na+].[Na+].[Na+].[Na+].[Na+].[Na+]", "note": "[8,8'-(2-Thioureylene)di-1,3,6-naphthalenetrisulfonic acid, hexasodium salt]", "values": [{"measurement": "In vitro Activity C1 026 Wells", "setting": "activated human C1", "value": "+5 Wells"}, {"measurement": "In vivo Activity Guinea Pigs Intraperitoneal % Lowering, 30 minutes", "setting": "complement", "value": 41, "unit": "%"}, {"measurement": "In vivo Activity Guinea Pigs Intraperitoneal % Lowering, 60 minutes", "setting": "complement", "value": 20, "unit": "%"}, {"measurement": "In vivo Activity Guinea Pigs Intraperitoneal % Lowering, 120 minutes", "setting": "complement", "value": 42, "unit": "%"}]}
{"compound": "O=C(Nc1ccc(S(=O)(=O)[O-])c2cc(S(=O)(=O)[O-])cc(S(=O)(=O)[O-])c12)Nc1ccc(S(=O)(=O)[O-])c2cc(S(=O)(=O)[O-])cc(S(=O)(=O)[O-])c12.[Na+].[Na+].[Na+].[Na+].[Na+].[Na+]", "note": "[8,8'-Ureylenedi-1,3,5-naphthalenetrisulfonic acid, hexasodium salt]", "values": [{"measurement": "In vivo Activity Guinea Pigs Intraperitoneal % Lowering, 30 minutes", "setting": "complement", "value": 92, "unit": "%"}, {"measurement": "In vivo Activity Guinea Pigs Intraperitoneal % Lowering, 60 minutes", "setting": "complement", "value": 92, "unit": "%"}, {"measurement": "In vivo Activity Guinea Pigs Intraperitoneal % Lowering, 120 minutes", "setting": "complement", "value": 94, "unit": "%"}]}
{"compound": "O=C(Nc1cc(S(=O)(=O)[O-])cc2cc(S(=O)(=O)[O-])cc(S(=O)(=O)[O-])c12)Nc1cc(S(=O)(=O)[O-])cc2cc(S(=O)(=O)[O-])cc(S(=O)(=O)[O-])c12.[Na+].[Na+].[Na+].[Na+].[Na+].[Na+]", "note": "[8,8'-Ureylenedi-1,3,6-naphthalenetrisulfonic acid, hexasodium salt]", "values": [{"measurement": "In vitro Activity C1 026 Wells", "setting": "activated human C1", "value": "+5 Wells"}, {"measurement": "In vivo Activity Guinea Pigs Intraperitoneal % Lowering, 30 minutes", "setting": "complement", "value": 25, "unit": "%"}, {"measurement": "In vivo Activity Guinea Pigs Intraperitoneal % Lowering, 60 minutes", "setting": "complement", "value": 61, "unit": "%"}, {"measurement": "In vivo Activity Guinea Pigs Intraperitoneal % Lowering, 120 minutes", "setting": "complement", "value": 65, "unit": "%"}]}
{"compound": "O=C(Nc1cc(S(=O)(=O)[O-])cc2cccc(S(=O)(=O)[O-])c12)Nc1cc(S(=O)(=O)[O-])cc2cccc(S(=O)(=O)[O-])c12.[Na+].[Na+].[Na+].[Na+]", "note": "[8,8'-Ureylenedi-1,6-naphthalenedisulfonic acid, tetrasodium salt]", "values": [{"measurement": "In vitro Activity C1 026 Wells", "setting": "activated human C1", "value": "+3 Wells"}]}
{"compound": "Nc1ccc2cc(S(=O)(=O)[O-])cc(O)c2c1N=Nc1ccc(NC(=O)Nc2ccc(N=Nc3c(N)ccc4cc(S(=O)(=O)[O-])cc(O)c34)c(S(=O)(=O)[O-])c2)cc1S(=O)(=O)[O-].[Na+].[Na+].[Na+].[Na+]", "note": "[chlorazol fast pink, 3,3'-ureylenebis[6-(2-amino-8-hydroxy-6-sulfo-1-naphthylazo)benzenesulfonic acid], tetrasodium salt]", "values": [{"measurement": "anti-complementary effect", "setting": "complement system", "value": "anti-complementary effect"}]}
{"compound": "NCCCCCC(=O)O", "note": "[epsilon-aminocaproic acid]", "values": [{"measurement": "treatment of hereditary angioneurotic edema", "setting": "[1]", "value": "used with success"}]}
{"compound": "NC[C@H]1CC[C@H](C(=O)O)CC1", "note": "[tranexamic acid]", "values": [{"measurement": "treatment of hereditary angioneurotic edema", "setting": "[1]", "value": "used with success"}]}
{"compound": "heparin", "values": [{"measurement": "anti-complementary effect", "setting": "complement system", "value": "anti-complementary effect"}]}
